The LD50 is the dose at which mortality reaches 50%. Lower therefore signals a more toxic substance.

Series [1] has as its system mouse peritoneal macrophage. As to the kind of experiment: In vitro tests on inhibition of foaming of macrophage with mouse peritoneal macrophage (cholesteryl ester formation). Format: cell-based, mouse (female ICR). The following applies: 16 hours at 37° C., read-out: CE (%) (cholesteryl ester-forming rate, ratio to the control). As for the experimental part:
(1) In vitro tests on inhibition of foaming of macrophage with mouse peritoneal macrophage:
The necks of 15-week old female ICR mice (Japan SLC) were cut off. After blood-letting, Hanks buffer solution (Nissui Seiyaku Co., Ltd.) was injected into the abdominal cavity of each mouse. The abdomen was massaged and then the buffer solution was rapidly recovered, centrifuged at 1000 rotations for 5 minutes to collect the peritoneal macrophages. The peritoneal macrophases thus collected were then suspended in GIT medium (Wako Pure Chemical Industries, Ltd.), and the suspension was spread on a 24-hole microplate. After the cultivation at 37° C. in 5% CO2 for 2 hours, the medium was replaced with a Dulbecoo Modified Eagle's MEM medium (Nissui Seiyaku Co., Ltd.). After the cultivation at 37° C. in 5% CO2 for additional 16 hours, the following substances were added in the following order:
(1) subject: dissolved in DMSO (Wako Pure Chemical Industries, Ltd.)
PC: phosphatidyl choline (a product of Funakoshi)
PS: phosphatidyl serine (ditto)
DCP: dicetyl phosphate (ditto)
CHOL.: cholesterol (Sigma).
After further cultivation at 37° C. in 5% CO2 for 16 hours, the lipid fraction was extracted with chloroform and methanol. The lipid fraction thus extracted was dissolved in isopropyl alcohol, and the formed cholesteryl ester (CE) was determined by an enzymatic coloring method. The cholesteryl ester-forming rate of each compound was calculated in terms of the ratio thereof to the control. The cytotoxicity was examined by microscopic observation of the shape of the cell.
The pharmacological effects of the compounds given in Table 2 were evaluated in the same manner as that of Example 3.

Series [2] relates to total blood cholesterol. As to the kind of experiment: Effect of reducing blood lipid of rabbit having high-cholesterol feed. Format: in vivo, rabbit (male New Zealand white). The following applies: 30 mg/kg/day mixed with high-cholesterol food, 14 days; based on the control; group of three rabbits. As for the experimental part:
(2) Effect of reducing blood lipid of rabit having high-cholesterol feed:
A high-cholesterol food (100 g/day/rabbit: ORC-4 of Oriental Yeast Co., Ltd. +0.5% cholesterol +0.5% olive oil) was given to each of male New Zealand white rabbits weighing about 2 kg for seven days to make them suffer from hypercholesterolemia.
In the next stage, the high-cholesterol food was still given to the rabbits and, in addition, 30 mg/kg/day/rabbit of the test compound (2) was continuously given in the form of a mixture thereof with the food to a group of three rabbits (test group) for 14 days. On the other hand, only the same high-cholesterol food as above was given in the equal dose to another group of three rabbits (control group).
After the continuous feeding for 14 days followed by fasting for one day, a small amount of the blood was taken from the parotid vein to determine the total blood cholesterol (latripo TC: a product of latron Co. Ltd.).

A short description of series [3]: Acute Toxicity Test. Also on record: species or system mouse (8-week ddy). Conditions: mouse, in vivo; oral, 0.5% Tween 80 suspension, six 8-week ddy mice, observed for one month. The text has this: The compound (2) was suspended in 0.5% Tween 80 solution.
The compound I-7 was suspended in 0.5% Tween 80 solution.

Series [4] has as its system mouse peritoneal macrophage. The following applies: dose 5 μM, microscopic observation.

Each structure is given as a SMILES string. Like-named read-outs stand apart in the source and are kept apart here.

Turning to `CCC(=O)n1c(SCCOCCSc2nc3ccccc3n2C(=O)CC)nc2ccccc21` [Compound (2)], in series [1] (Table 1, ratio to control), the activity at 5 µM was 7%. In addition, the “total blood cholesterol decreasing rate” value in series [2] stood at 25%. The compound also showed an LD50 at 730 h in series [3] of no less than 5000 mg/kg. The Cytotoxicity result in series [4] (Table 1) is recorded as “none”.
In the case of `CCC(=O)n1c(SCCOCCOCCSc2nc3ccccc3n2C(=O)CC)nc2ccccc21` [Compound (20)], in series [1] (Table 1, ratio to control), the activity at 5 µM was 69%. Besides, the Cytotoxicity result in series [4] (Table 1) is reported as “none”.
For `CCCn1c(SCCOCCOCCSc2nc3ccccc3n2CCC)nc2ccccc21` [Compound (21)] the same measures were 23% and “none”.
For `c1ccc2[nH]c(SCCOCCOCCOCCSc3nc4ccccc4[nH]3)nc2c1` [Compound (22)] the same measures were 22% and “none”.
In series [3], `c1ccc2[nH]c(SCCCCCSc3nc4ccccc4[nH]3)nc2c1` [Compound I-7, 1,5-bis(2-benzimidazoylthio)pentane] showed an LD50 at 730 h of no less than 5000 mg/kg.
Turning to `c1ccc2[nH]c(SCCCCCCSc3nc4ccccc4[nH]3)nc2c1` [IV-1, 1,6-bis(2-benzimidazoylthio)hexane], the activity at 5 µM in series [1] (Table 2, ratio to control) was found to be 28%. For the same compound, the Cytotoxicity entry in series [4] (Table 2) was “none”.
For the compound `c1ccc2[nH]c(SCCCCCCCCSc3nc4ccccc4[nH]3)nc2c1` [IV-2, 1,8-bis(2-benzimidazoylthio)octane], the activity at 5 µM in series [1] (Table 2, ratio to control) came to 28%. The Cytotoxicity entry in series [4] (Table 2) was “none”.
